{"source": "patent US20240199676A1", "about": "“ANTIVIRAL COMPOUNDS AND METHODS OF MAKING AND USING THE SAME” (Gilead Sciences, Inc., priority 2022, published 2024)", "test_system": "Respiratory syncytial virus recombinant with luciferase (RSV-Luc5) in HEp-2 cells", "experiment": "HEp-2 RSV-Luc5 384-well Assay (EC50 RSVFLUC Hep2-384, Ex. R)", "assay_type": "cell-based", "conditions": "human respiratory syncytial virus, HEp-2, 72 h, read-out: RSV Hep-2 FLuc EC50 (per Ex. R)", "excerpt": "Example R. HEp-2 RSV-Luc5 384-well Assay (EC50 RSVFLUC Hep2-384)\nHEp-2 cell line was purchased from ATCC (Manassas, VA Cat #CCL-23) and maintained in Dulbecco's […] (DMEM) (Corning, New York, NY, Cat #15-018CM) supplemented with 10% fetal bovine serum (FBS) (Hyclone, Logan, UT, Cat #SH30071-03) and 1× Penicillin-Streptonycin-L-Glutamine (Corning, New York, NY, Cat #30-009-CI). Cells were passaged 2 times per week to maintain sub-confluent densities and were used for experiments at passage 5-20. Respiratory syncytial virus recombinant with luciferase (RSV-Luc5) direct pelleted virus (≥1×107 TCID50/ml) was purchased from Microbiologics (Saint Cloud, MN). Viral replication was determined in HEp-2 cells in the following manner.\nCompounds are prepared in 384-well polypropylene plates (Greiner, Monroe, NC, Cat#784201) with 8 compounds per plate in grouped replicates of 4 at 10 serially diluted concentrations (1:3).\nHEp-2 cells were suspended in DMEM (supplemented with 10% FBS and 1× Penicillin-Streptomycin-L-Glutanine) and 60 uL of 4,000 cells per well were seeded into 384-well plates (Greiner, Monroe, NC, Cat #781080) using Biotek MultiFlo dispenser. […] Viral replication was then assessed by measuring luminescence signal using and Envision plate reader. […]"}
{"smiles": "CC(C)C(=O)OC[C@@]1(C#N)O[C@@H](c2ccc3c(N)ncnn23)[C@H](O)[C@@H]1O", "note": "[Compound 1, ((2R,3S,4R,5S)-5-(4-aminopyrrolo[2,1-f][1,2,4]triazin-7-yl)-2-cyano-3,4-dihydroxytetrahydrofuran-2-yl)methyl isobutyrate]", "values": [{"measurement": "EC50", "value": 10.4, "unit": "µM"}]}
